Patent publication US11149011B2, “Compounds and methods for IDO and TDO modulation, and indications therefor” (Plexxikon Inc., priority 2018, dated 2021)

Columns and labels:
IDO1 = biological target: T1, IDO1 (Homo sapiens, UniProt P14902); experiment: IDO enzymatic assay; type: biochemical; details: geometric mean; read-out: IDO1 GMean: IC50 (μM) (Biochemical Assay)
T1 construct: His tag (N); made in house; host or cells: E. coli
In short: (§1)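 N-His human enzymes from E. coli in 50 mM sodium phosphate pH 6.5 with ascorbate, catalase, Tween 20. IDO: 6 nM enzyme, 10 μM L-Trp, 5 μM methylene blue, 20 min RT; TDO: 1 nM enzyme, 350 μM L-Trp, 0.4 μM methylene blue, 70 min RT. TCA stop, kynurenine measured; IC50 by nonlinear regression.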

TDO = biological target: T2, TDO (Homo sapiens, UniProt P48775); experiment: TDO enzymatic assay; details: geometric mean; read-out: TDO GMean: IC50 (μM) (Biochemical Assay)
T2 construct: His tag (N); made in house; host or cells: E. coli
In short: as §1

[1] = biological target: T3, TDO-expressing HEK293 cell clones (Homo sapiens, UniProt P48775); experiment: Cell based kynurenine assay, TDO-expressing HEK293 cell clones; details: HEK293 cells, 24 hours of incubation, geometric mean; read-out: HEK293 TDO Kynurenine GMean IC50 (μM) (Cellular Assay)
T3 construct: expressed in transfected cells; host or cells: HEK293
In short: (§2)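 HEK293 clones stably transfected with CMV-driven human IDO1 or human TDO were seeded at 2.5×10^4 cells/well and treated with serial compound dilutions for 24 hours. Supernatant kynurenine was measured. % inhibition versus DMSO-cell and media-only controls was fitted by nonlinear regression to give IC50.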

[2] = biological target: T4, IDO1-expressing HEK293 cell clones (Homo sapiens, UniProt P14902); experiment: Cell based kynurenine assay, IDO1-expressing HEK293 cell clones; details: HEK293 cells, 24 hours of incubation, geometric mean; read-out: HEK293 IDO1 Kynurenine GMean IC50 (μM) (Cellular Assay)
T4 construct: expressed in transfected cells; host or cells: HEK293
In short: as §2

T1 sequence (P14902 whole entry): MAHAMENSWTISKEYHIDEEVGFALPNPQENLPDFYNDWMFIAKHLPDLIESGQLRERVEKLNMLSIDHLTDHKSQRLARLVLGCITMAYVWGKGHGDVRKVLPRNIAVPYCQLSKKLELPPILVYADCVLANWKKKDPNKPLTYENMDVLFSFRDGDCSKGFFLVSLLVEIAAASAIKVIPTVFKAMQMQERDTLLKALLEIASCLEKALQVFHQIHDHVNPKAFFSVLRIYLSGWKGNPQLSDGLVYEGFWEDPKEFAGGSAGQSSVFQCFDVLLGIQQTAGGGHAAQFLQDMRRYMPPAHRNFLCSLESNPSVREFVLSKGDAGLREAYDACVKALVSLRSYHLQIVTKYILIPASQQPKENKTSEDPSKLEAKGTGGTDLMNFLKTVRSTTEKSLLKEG
T4 sequence (P14902 whole entry): as above
T3 sequence (P48775 whole entry): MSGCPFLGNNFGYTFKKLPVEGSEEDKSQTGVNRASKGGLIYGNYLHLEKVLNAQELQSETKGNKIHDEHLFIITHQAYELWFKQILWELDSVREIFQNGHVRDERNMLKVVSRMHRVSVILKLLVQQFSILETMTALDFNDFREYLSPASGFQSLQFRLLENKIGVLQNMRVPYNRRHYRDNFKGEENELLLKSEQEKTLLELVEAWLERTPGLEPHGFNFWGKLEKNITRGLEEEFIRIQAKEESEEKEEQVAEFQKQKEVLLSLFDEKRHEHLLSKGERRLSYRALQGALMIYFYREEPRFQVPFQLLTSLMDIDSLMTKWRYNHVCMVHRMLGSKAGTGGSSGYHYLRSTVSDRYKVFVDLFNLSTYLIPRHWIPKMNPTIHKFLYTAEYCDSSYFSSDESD
T2 sequence (P48775 whole entry): as above

Structure (SMILES) | IC50 (IDO1) [µM] | IC50 (TDO) [µM] | IC50 [1] [µM] | IC50 [2] [µM]
CC(C)(C1CCN(C(=O)NCc2ccc(C#N)nc2)CC1)C(O)c1cc(Cl)cc2[nH]ncc12 (stereo not drawn) [Compound P-0116, 4-(1-(6-chloro-1H-indazol-4-yl)-1-hydroxy-2-methylpropan-2-yl)-N-((6-cyanopyridin-3-yl)methyl)piperidine-1-carboxamide] | 0.0001 to 10 | 0.0001 to 10 | 0.0001 to 10 | 0.0001 to 10
CC(C)(C1CCN(C(=O)NCc2ccc(C#N)cc2)CC1)C(O)c1cc(Cl)cc2[nH]ncc12 (stereo not drawn) [Compound P-0118, 4-(1-(6-chloro-1H-indazol-4-yl)-1-hydroxy-2-methylpropan-2-yl)-N-(4-cyanobenzyl)piperidine-1-carboxamide] | 0.0001 to 10 | 0.0001 to 10 | 0.0001 to 10 | 0.0001 to 10
CC(C)(C1CCN(C(=O)NC2(C#N)CC2)CC1)C(O)c1cc(Cl)cc2[nH]ncc12 (stereo not drawn) [Compound P-0119, 4-(1-(6-chloro-1H-indazol-4-yl)-1-hydroxy-2-methylpropan-2-yl)-N-(1-cyanocyclopropyl)piperidine-1-carboxamide] | 0.0001 to 10 | 0.0001 to 10 | 0.0001 to 10 | > 10
CCONC(=O)N1CCC(C(C)(C)[C@H](O)c2cc(Cl)cc3cn[nH]c23)CC1 [Compound P-0121, (S)-4-(1-(5-chloro-1H-indazol-7-yl)-1-hydroxy-2-methylpropan-2-yl)-N-ethoxypiperidine-1-carboxamide] | 0.0001 to 10 | 0.0001 to 10 | 0.0001 to 10 | 0.0001 to 10
CC(C)(C1CCN(C(=O)NOCc2ccccc2)CC1)[C@H](O)c1cc(Cl)cc2cn[nH]c12 [Compound P-0123, (S)-N-(benzyloxy)-4-(1-(5-chloro-1H-indazol-7-yl)-1-hydroxy-2-methylpropan-2-yl)piperidine-1-carboxamide] | 0.0001 to 10 | 0.0001 to 10 | 0.0001 to 10 | 0.0001 to 10
C[C@H](O)C(=O)N1CCC(C(C)(C)[C@H](O)c2cc(Cl)cc3cn[nH]c23)CC1 [Compound P-0124, (S)-1-(4-((S)-1-(5-chloro-1H-indazol-7-yl)-1-hydroxy-2-methylpropan-2-yl)piperidin-1-yl)-2-hydroxypropan-1-one] | 0.0001 to 10 | 0.0001 to 10 | 0.0001 to 10 | 0.0001 to 10
CC(C)(C1CCN(C(=O)CN)CC1)[C@H](O)c1cc(Cl)cc2cn[nH]c12 [Compound P-0126, (S)-2-amino-1-(4-(1-(5-chloro-1H-indazol-7-yl)-1-hydroxy-2-methylpropan-2-yl)piperidin-1-yl)ethan-1-one] | 0.0001 to 10 | 0.0001 to 10 | 0.0001 to 10 | 0.0001 to 10
C[C@H](N)C(=O)N1CCC(C(C)(C)[C@H](O)c2cc(Cl)cc3cn[nH]c23)CC1 [Compound P-0127, (S)-2-amino-1-(4-((S)-1-(5-chloro-1H-indazol-7-yl)-1-hydroxy-2-methylpropan-2-yl)piperidin-1-yl)propan-1-one] | 0.0001 to 10 | 0.0001 to 10 | 0.0001 to 10 | 0.0001 to 10
CNCC(=O)N1CCC(C(C)(C)[C@H](O)c2cc(Cl)cc3cn[nH]c23)CC1 [Compound P-0128, (S)-1-(4-(1-(5-chloro-1H-indazol-7-yl)-1-hydroxy-2-methylpropan-2-yl)piperidin-1-yl)-2-(methylamino)ethan-1-one] | 0.0001 to 10 | 0.0001 to 10 | 0.0001 to 10 | 0.0001 to 10
CN(O)C(=O)N1CCC(C(C)(C)[C@H](O)c2cc(Cl)cc3cn[nH]c23)CC1 [Compound P-0129, (S)-4-(1-(5-chloro-1H-indazol-7-yl)-1-hydroxy-2-methylpropan-2-yl)-N-hydroxy-N-methylpiperidine-1-carboxamide] | 0.0001 to 10 | 0.0001 to 10 | 0.0001 to 10 | 0.0001 to 10
CON(C)C(=O)N1CCC(C(C)(C)[C@H](O)c2cc(Cl)cc3cn[nH]c23)CC1 [Compound P-0130, (S)-4-(1-(5-chloro-1H-indazol-7-yl)-1-hydroxy-2-methylpropan-2-yl)-N-methoxy-N-methylpiperidine-1-carboxamide] | 0.0001 to 10 | 0.0001 to 10 | 0.0001 to 10 | 0.0001 to 10
CC(C)(C1CCN(C(=O)C2(O)CC2)CC1)[C@H](O)c1cc(Cl)cc2cn[nH]c12 [Compound P-0133, (S)-(4-(1-(5-chloro-1H-indazol-7-yl)-1-hydroxy-2-methylpropan-2-yl)piperidin-1-yl)(1-hydroxycyclopropyl)methanone] | 0.0001 to 10 | 0.0001 to 10 | 0.0001 to 10 | 0.0001 to 10
CC(C)(C1CCN(C(=O)CCO)CC1)[C@H](O)c1cc(Cl)cc2cn[nH]c12 [Compound P-0134, (S)-1-(4-(1-(5-chloro-1H-indazol-7-yl)-1-hydroxy-2-methylpropan-2-yl)piperidin-1-yl)-3-hydroxypropan-1-one] | 0.0001 to 10 | 0.0001 to 10 | 0.0001 to 10 | 0.0001 to 10
CC(C)(C1CCN(C(=O)CO)CC1)[C@H](O)c1cc(Cl)cc2[nH]ncc12 [Compound P-0145, (S)-1-(4-(1-(6-chloro-1H-indazol-4-yl)-1-hydroxy-2-methylpropan-2-yl)piperidin-1-yl)-2-hydroxyethan-1-one] | 0.0001 to 10 | 0.0001 to 10 | 0.0001 to 10 | > 10

Further lines, results first:

IC50 (IDO1) [µM] | IC50 (TDO) [µM] | IC50 [1] [µM] | IC50 [2] [µM] | Structure (SMILES)
0.0001 to 10 | 0.0001 to 10 | 0.0001 to 10 | 0.0001 to 10 | CC(C)(C1CCN(C(=O)NCc2ccc(F)cn2)CC1)C(O)c1cc(Cl)cc2[nH]ncc12 (stereo not drawn) [Compound P-0117, 4-(1-(6-chloro-1H-indazol-4-yl)-1-hydroxy-2-methylpropan-2-yl)-N-((5-fluoropyridin-2-yl)methyl)piperidine-1-carboxamide]
0.0001 to 10 | 0.0001 to 10 | 0.0001 to 10 | 0.0001 to 10 | CC(C)(C1CCN(C(=O)Nc2ccc(C#N)nc2)CC1)[C@H](O)c1cc(Cl)cc2cn[nH]c12 [Compound P-0120, (S)-4-(1-(5-chloro-1H-indazol-7-yl)-1-hydroxy-2-methylpropan-2-yl)-N-(6-cyanopyridin-3-yl)piperidine-1-carboxamide]
0.0001 to 10 | 0.0001 to 10 | 0.0001 to 10 | 0.0001 to 10 | CC(C)(C1CCN(C(=O)NO)CC1)[C@H](O)c1cc(Cl)cc2cn[nH]c12 [Compound P-0122, (S)-4-(1-(5-chloro-1H-indazol-7-yl)-1-hydroxy-2-methylpropan-2-yl)-N-hydroxypiperidine-1-carboxamide]
0.0001 to 10 | 0.0001 to 10 | 0.0001 to 10 | 0.0001 to 10 | C[C@@H](N)C(=O)N1CCC(C(C)(C)[C@H](O)c2cc(Cl)cc3cn[nH]c23)CC1 [Compound P-0125, (R)-2-amino-1-(4-((S)-1-(5-chloro-1H-indazol-7-yl)-1-hydroxy-2-methylpropan-2-yl)piperidin-1-yl)propan-1-one]
0.0001 to 10 | 0.0001 to 10 | 0.0001 to 10 | 0.0001 to 10 | C[C@@H](O)C(=O)N1CCC(C(C)(C)[C@H](O)c2cc(Cl)cc3cn[nH]c23)CC1 [Compound P-0131, (R)-1-(4-((S)-1-(5-chloro-1H-indazol-7-yl)-1-hydroxy-2-methylpropan-2-yl)piperidin-1-yl)-2-hydroxypropan-1-one]
0.0001 to 10 | 0.0001 to 10 | 0.0001 to 10 | 0.0001 to 10 | CC(C)(O)C(=O)N1CCC(C(C)(C)[C@H](O)c2cc(Cl)cc3cn[nH]c23)CC1 [Compound P-0132, (S)-1-(4-(1-(5-chloro-1H-indazol-7-yl)-1-hydroxy-2-methylpropan-2-yl)piperidin-1-yl)-2-hydroxy-2-methylpropan-1-one]
0.0001 to 10 | 0.0001 to 10 | 0.0001 to 10 | 0.0001 to 10 | CS(=O)(=O)N1CCC2(CC1)CC(O)(c1c(F)c(Cl)cc3cn[nH]c13)C2 [Compound P-0136, 2-(5-chloro-6-fluoro-1H-indazol-7-yl)-7-(methylsulfonyl)-7-azaspiro[3.5]nonan-2-ol]
0.0001 to 10 | 0.0001 to 10 | 0.0001 to 10 | > 10 | CC(C)(C)OC(=O)N1CCC(C(C)(C)[C@H](O)c2cc(Cl)cc3[nH]ncc23)CC1 [Compound P-0142, tert-butyl (S)-4-(1-(6-chloro-1H-indazol-4-yl)-1-hydroxy-2-methylpropan-2-yl)piperidine-1-carboxylate]
0.0001 to 10 | 0.0001 to 10 | 0.0001 to 10 | 0.0001 to 10 | [2H]C([2H])([2H])C(C1CCN(C(=O)CO)CC1)(C(O)c1cc(Cl)cc2cn[nH]c12)C([2H])([2H])[2H] (stereo not drawn) [Compound P-0143, 1-(4-(2-((5-chloro-1H-indazol-7-yl)(hydroxy)methyl)propan-2-yl-1,1,1,3,3,3-d6)piperidin-1-yl)-2-hydroxyethan-1-one]
0.0001 to 10 | 0.0001 to 10 | 0.0001 to 10 | > 10 | CC(C)(C)OC(=O)N1CCC(C(C)(C)[C@@H](O)c2cc(Cl)cc3[nH]ncc23)CC1 [Compound P-0144, tert-butyl (R)-4-(1-(6-chloro-1H-indazol-4-yl)-1-hydroxy-2-methylpropan-2-yl)piperidine-1-carboxylate]
